From PubChem BioAssay AID2060896 (Molecular Pharmacology Branch, DTP, NCI, 2025)
One block for each compound: values may come before it.

Tested on: 941728-121-R-J1-PDC complex spheroid viability
Test: Anticancer human tumor 941728-121-R-J1-PDC patient-derived lung adenocarcinoma cell line growth inhibition [RAS]
Details: for IC50: curve of first compound; for viability, T/C: stronger effect = lower value
Excerpt: RAS pathway inhibitors in Combinations in Complex Spheroids
A high-throughput screen of multi-cell type tumor spheroids was designed to identify active combinations of RAS pathway inhibitors and targeted small molecules. Complex spheroids include a stromal component modeled by human endothelial cells (HUVEC) and fibroblasts modeled by human mesenchymal stem cells (MSCs). The concentration ranges selected for each drug and investigational agent were based upon clinically achievable concentrations if the clinical Cmax of the agent was known.
Compounds. The drugs and investigational agents: abemaciclib (NSC768073), cobimetinib (NSC768068), divarasib (GDC6063, NSC841802), docetaxel (NSC628503), GDC-1971 (RLY-1971, NSC841576), gemcitabine (NSC613327), inavolisib (NSC800729), ipatasertib (NSC767898), KB-0742 (NSC834161), MRTX-1133 (NSC836407), osimertinib (NSC779217), RMC-4630 (NSC839698), RMC-6236 (NSC851965), RMC-6291 (NSC852671), Ro-3306 (NSC812927), sapanisertib (NSC764658), SN-38 (NSC673596), staurosporine (NSC755774), SY5609 (NSC837396), and tovorafenib (DAY101, NSC766906), were obtained from the National Cancer Institute (NCI) Developmental Therapeutics Program Chemical Repository. The FDA-approved anticancer drug set is available from the NCI Developmental Therapeutics Program. […] The stock solutions were prepared in dimethyl sulfoxide (DMSO, Sigma-Aldrich, St. Louis, MO, cat. D2650) at 800-fold the tested concentration and stored at -70 degrees C prior to their use. All drugs and investigational agents were tested over a range starting from a high concentration at or near the clinical Cmax and decreasing in half-log increments. If the clinical Cmax for an agent had not been determined, the highest concentration tested was 10 microM.
Cell Culture. All cells were maintained in an incubator at 37 degrees C and 5% CO2 with 95% humidity. The PDC lines were cultured according to standard operating procedures established by the NCI PDMR. All PDCs were thawed and cultured in Matrigel-coated flasks prepared with a working solution of 1X Ham's F-12 nutrient mix, without supplementation (Invitrogen, Waltham, MA, cat. 11765054), 100 U/mL penicillin-streptomycin (Invitrogen, cat. 15140122), and 2.5% Matrigel (Corning Inc., Corning, NY, cat. 354248) for the first three passages. The 362531-283-R-J2-PDC and 782815-120-R-J1-PDC lines were cultured in 6C/Colon 1B media, which includes advanced DMEM/F-12 (Thermo Fisher Scientific, cat. 12634028), 10 mM HEPES (Thermo Fisher Scientific, cat. 15630080), 1X GlutaMAX supplement (Thermo Fisher Scientific, cat. 35050061), 0.1 mg/mL primocin (InvivoGen, San Diego, CA, cat. ant-pm-2), 10% defined fetal bovine serum, heat inactivated (HyClone Laboratories Inc., Logan, UT, cat. SH30070.03HI), 50% L-WRN conditioned media (ATCC, cat. CRL-3276), 1.25 mM N-Acetyl-L-cysteine (Sigma-Aldrich, cat. A9165), 10 mM nicotinamide (Sigma-Aldrich, cat. N0636), 1X B-27 supplement (Thermo Fisher Scientific, cat. 17504044), 1X N-2 supplement (Thermo Fisher Scientific, cat. 17502048), 50 ng/mL human EGF (Thermo Fisher Scientific, cat. PHG0311), and 10 microM Y-27632 dihydrochloride (Tocris Bioscience, cat. 1254). The K12877-001-R-J1-PDC line was cultured in 6I media, which includes all 6C/Colon 1B media plus 10 ng/mL human FGF-10 (PeproTech, cat. 100-26), 1 ng/mL human FGF-2 (PeproTech, cat. 100-18B), 1 µM prostaglandin E2 (Tocris Bioscience, cat. 2296), […] hydrocortisone (Sigma-Aldrich, cat. H4001), and […] bovine insulin (Sigma-Aldrich, cat. I6634). The K86415-001-R-J1-PDC line was cultured in 6D media, which includes all 6C/Colon 1B media components minus the L-WRN conditioned media. The 485176-168-R4-J1-PDC was cultured in PANC media, which includes all 6C/Colon 1B media plus 100 ng/mL human FGF-10 (PeproTech, cat. 100-26), 500 nM SB-431542 (Selleckchem, cat. S1067), and 10 nM gastrin (Tocris Bioscience, cat. 3006). […]

[1] = second compound 0.0316 µM, first compound 0.0316 µM
[2] = second compound 0.0316 µM, first compound 0.1 µM
[3] = second compound 0.1 µM, first compound 0.0316 µM
[4] = second compound 0.1 µM, first compound 0.1 µM
[5] = second compound 0.316 µM, first compound 0.0316 µM
[6] = second compound 0.316 µM, first compound 0.1 µM
[7] = second compound 1 µM, first compound 0.0316 µM
[8] = second compound 1 µM, first compound 0.1 µM
[9] = second compound 3.16 µM, first compound 0.0316 µM
[10] = second compound 3.16 µM, first compound 0.1 µM
[11] = second compound 10 µM, first compound 0.0316 µM
[12] = second compound 10 µM, first compound 0.1 µM
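Note: spheroids exposed to compounds for 7 days before readout.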
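Throughout, for viability, T/C: 100% = DMSO vehicle control viability.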

IC50 (second compound 0.0316 µM): 3.97 nM
IC50 (second compound 0.1 µM): 2.76 nM
IC50 (second compound 0.316 µM): 1.26 nM
IC50 (second compound 1 µM): < 0.316 nM
IC50 (second compound 3.16 µM): < 0.316 nM
IC50 (second compound 10 µM): < 0.316 nM
SMILES: CC(C)n1nc(-c2ccc3oc(N)nc3c2)c2c(N)ncnc21 + C#Cc1c(F)ccc2cc(O)cc(-c3ncc4c(N5CC6CCC(C5)N6)nc(OCC56CCCN5CC(F)C6)nc4c3F)c12
viability, T/C (second compound 0.0316 µM, first compound 0.000316 µM): 78.9%
viability, T/C (second compound 0.0316 µM, first compound 0.001 µM): 70.5%
viability, T/C (second compound 0.0316 µM, first compound 0.00316 µM): 51%
viability, T/C (second compound 0.0316 µM, first compound 0.01 µM): 39.2%
viability, T/C [1]: 31.6%
viability, T/C [2]: 26.3%
viability, T/C (second compound 0.1 µM, first compound 0.000316 µM): 68.5%
viability, T/C (second compound 0.1 µM, first compound 0.001 µM): 68.6%
viability, T/C (second compound 0.1 µM, first compound 0.00316 µM): 46.3%
viability, T/C (second compound 0.1 µM, first compound 0.01 µM): 33.9%
viability, T/C [3]: 27.8%
viability, T/C [4]: 26.6%
viability, T/C (second compound 0.316 µM, first compound 0.000316 µM): 60.8%
viability, T/C (second compound 0.316 µM, first compound 0.001 µM): 51.7%
viability, T/C (second compound 0.316 µM, first compound 0.00316 µM): 42%
viability, T/C (second compound 0.316 µM, first compound 0.01 µM): 34.5%
viability, T/C [5]: 26.7%
viability, T/C [6]: 26.3%
viability, T/C (second compound 1 µM, first compound 0.000316 µM): 33.6%
viability, T/C (second compound 1 µM, first compound 0.001 µM): 35.9%
viability, T/C (second compound 1 µM, first compound 0.00316 µM): 31.3%
viability, T/C (second compound 1 µM, first compound 0.01 µM): 23.7%
viability, T/C [7]: 21.1%
viability, T/C [8]: 18.8%
viability, T/C (second compound 3.16 µM, first compound 0.000316 µM): 29.4%
viability, T/C (second compound 3.16 µM, first compound 0.001 µM): 30.4%
viability, T/C (second compound 3.16 µM, first compound 0.00316 µM): 25.9%
viability, T/C (second compound 3.16 µM, first compound 0.01 µM): 20.2%
viability, T/C [9]: 18.4%
viability, T/C [10]: 15.9%
viability, T/C (second compound 10 µM, first compound 0.000316 µM): 24.1%
viability, T/C (second compound 10 µM, first compound 0.001 µM): 22.3%
viability, T/C (second compound 10 µM, first compound 0.00316 µM): 20%
viability, T/C (second compound 10 µM, first compound 0.01 µM): 15.9%
viability, T/C [11]: 11.5%
viability, T/C [12]: 9.78%

IC50 (second compound 0.0316 µM): 7000 nM
IC50 (second compound 0.1 µM): 7100 nM
IC50 (second compound 0.316 µM): 2680 nM
IC50 (second compound 1 µM): < 31.6 nM
IC50 (second compound 3.16 µM): < 31.6 nM
IC50 (second compound 10 µM): < 31.6 nM
SMILES: C[C@@H](NC(=O)c1ncnc(N)c1Cl)c1ncc(C(=O)Nc2cc(C(F)(F)F)c(Cl)cn2)s1 + C#Cc1c(F)ccc2cc(O)cc(-c3ncc4c(N5CC6CCC(C5)N6)nc(OCC56CCCN5CC(F)C6)nc4c3F)c12
viability, T/C [1]: 107%
viability, T/C [2]: 102%
viability, T/C (second compound 0.0316 µM, first compound 0.316 µM): 108%
viability, T/C (second compound 0.0316 µM, first compound 1 µM): 94.4%
viability, T/C (second compound 0.0316 µM, first compound 3.16 µM): 72.5%
viability, T/C (second compound 0.0316 µM, first compound 10 µM): 40%
viability, T/C [3]: 102%
viability, T/C [4]: 109%
viability, T/C (second compound 0.1 µM, first compound 0.316 µM): 103%
viability, T/C (second compound 0.1 µM, first compound 1 µM): 102%
viability, T/C (second compound 0.1 µM, first compound 3.16 µM): 76.3%
viability, T/C (second compound 0.1 µM, first compound 10 µM): 38.9%
viability, T/C [5]: 69.7%
viability, T/C [6]: 79.6%
viability, T/C (second compound 0.316 µM, first compound 0.316 µM): 69.6%
viability, T/C (second compound 0.316 µM, first compound 1 µM): 60.2%
viability, T/C (second compound 0.316 µM, first compound 3.16 µM): 49.2%
viability, T/C (second compound 0.316 µM, first compound 10 µM): 37.1%
viability, T/C [7]: 46.2%
viability, T/C [8]: 48.5%
viability, T/C (second compound 1 µM, first compound 0.316 µM): 45.3%
viability, T/C (second compound 1 µM, first compound 1 µM): 39.4%
viability, T/C (second compound 1 µM, first compound 3.16 µM): 38.4%
viability, T/C (second compound 1 µM, first compound 10 µM): 29.4%
viability, T/C [9]: 30%
viability, T/C [10]: 32.5%
viability, T/C (second compound 3.16 µM, first compound 0.316 µM): 28.2%
viability, T/C (second compound 3.16 µM, first compound 1 µM): 26.5%
viability, T/C (second compound 3.16 µM, first compound 3.16 µM): 30.2%
viability, T/C (second compound 3.16 µM, first compound 10 µM): 28.1%
viability, T/C [11]: 24.4%
viability, T/C [12]: 25.2%
viability, T/C (second compound 10 µM, first compound 0.316 µM): 25.3%
viability, T/C (second compound 10 µM, first compound 1 µM): 26.2%
viability, T/C (second compound 10 µM, first compound 3.16 µM): 25%
viability, T/C (second compound 10 µM, first compound 10 µM): 21.7%
